# Tests used:
# [1] = tested on: colon carcinoma SW-620 cells; test: Colon carcinoma (SW-620) xenograft model; type: in vivo, CD-1 female nude mice; details: vs vehicle-treated control, FIG. 3
# Method: (§1) The ability of compound 1 to inhibit colon tumour growth in vivo was tested as follows. CD-1 female nude mice (7 mice per treatment group, 6-7 weeks) were injected […] with human colon adenocarcinoma cells HT-29 cells (3×10^6 cells in 0.1 ml PBS). Treatment of the mice with vehicle or 50 mg/kg/d of […] was initiated 5 days post-inoculation (size of tumours=20-40 mm^3) for 7-day cycles of five days followed by a 2 day break for 5 weeks. The size of the tumours was measured over the course of the experiment using calipers, and the weight of the tumours was measured after the animals were sacrificed.
# Similar tests were conducted with colon carcinoma KM-12 cells and colon carcinoma SW-620 cells.
# [2] = tested on: non small cell lung cancer (H460); test: Non small cell lung cancer (H460) xenograft model; type: in vivo, CD-1 female nude mice; details: large-cell lung carcinoma H460; vs vehicle-treated control; FIG. 6
# Method: as §1
# The ability of compound 1 to inhibit renal cell carcinoma growth (see FIG. 4), to inhibit pancreatic carcinoma growth (FIG. 5), to inhibit large-cell lung carcinoma cell growth (FIG. 6), and to inhibit Glioblastoma cell growth (FIG. 7) was also tested following the general procedure as discussed above.
# [3] = tested on: human colon carcinoma cells HT-29; test: XTT cell proliferation assay, HT-29; type: cell-based; details: 5 days incubation, read-out: Antiproliferative activity, Colon HT-29
# Method: (§2) Exemplary compounds 1-8 were tested for anti-cancer activity in vitro using human renal cancer cells (ACHN and CAK-1), human pancreatic cells (BXPC3 and SU-86-86), human prostate cancer cell (DU14), human colon carcinoma cells (HT-29 and KM-12), leukemia cells (HL60), brain cancer/tumour cells (SK-A-AS, U87-MG), and human non-small cell lung cancer cells (H460). Compounds 1-8 are the specific embodiments of Formula (I) and Formula (IV) as described above in this application.
# (§3) The cells were maintained as a monolayer in a growth medium; McCoy's 5A modified medium (Sigma, St. Louis, Mo.), supplemented with 2 mM L-glutamine (Gibco, Grand Island, N.Y.), 10% fetal bovine serum (FBS) (Multicell, WISENT Inc. St-Bruno, QC), antibiotic-antimycotic (Multicell), at 37° C. in a 5% CO2-humidified incubator. Cells were transferred onto 150 mm tissue culture plates and grown until sub-confluency (70-80%) prior to their use. The in vitro antiproliferative activity of compounds was evaluated by incubating the cells with varying concentrations of exemplary compounds as shown in Table 1 for 5 days. The efficacy of these compounds in this cell proliferation assay was measured based in the ability of live cells to reduce the tetrazolium salt XTT to orange colored compounds of formazan (XTT cell proliferation kit IT, Roche Applied Science, Montreal, QC).
# [4] = tested on: panel of human and mouse lymphoma cell lines; test: Cell growth inhibition, whole lymphoma panel (mean IC50, mean rank); type: cell-based; details: mean over six lymphoma cell lines
# Method: (§4) In this study, compounds 1-8 were screened in vitro against a panel of four mouse lymphoma cell lines and two human lymphoma cell line for cell growth inhibition activity. Following treatment, half maximal inhibitory concentrations (IC50) were determined with the objective of selecting the most efficacious compounds for evaluation of in vitro absorption, distribution, metabolism, and excretion (ADME) screening.
# (§5) Cells were subcultured and 4×10^3 cells (in 50 μL) were transferred to each well in a Falcon 96-well tissue culture plate. Exemplary compounds were dissolved in pure dimethyl sulphoxide (DMSO) at a concentration of 10 mM. From this 10 mM stock solution, 12 successive serial dilutions were made in DMSO (2.5 fold dilutions), ranging from 0.52 μM to 10 mM. Using these stock dilutions, 5 μL of each were added to 500 μL of media, and 50 μL of this was added to the cells. The final concentrations being tested ranged from 0.0026 μM to 50 μM. Each concentration was tested in triplicate, and DMSO and untreated cells were also included as controls. After five days of incubation with the compounds, cell viability was determined using the XTT cell proliferation kit (Roche, Cat. No. 11 465 015 001). Following the XTT protocol, 4.5-24 hours after addition of the reagent, the plates were read in a μQuant 96-well plate spectrophotometer (Biotek Instruments Inc.) and the results analyzed to determine the IC50.
# In vitro potency was assessed using eight exemplary compounds against a panel of human and mouse lymphoma cell lines (Table 4). […] To compare the efficacy of the compounds in cell growth inhibition across the entire panel of cell lines screened, the eight compounds were ranked according to efficacy against each cell line with a numerical value of one indicating most efficacious (lowest IC50 value) and eight being the least efficacious (highest IC50 value).
# [5] = tested on: human colon adenocarcinoma cells HT-29; test: Colon carcinoma (HT-29) xenograft model; type: in vivo, CD-1 female nude mice; details: 50 mg/kg/d, five days on, 2 day break, 5 weeks, vs vehicle-treated control, FIG. 1
# Method: as §1
# [6] = tested on: human Burkitt's lymphoma Ramos cells; test: Cell growth inhibition assay, Ramos; type: cell-based; details: five days of incubation, XTT; read-out: IC50 Ramos (hs)
# Method: as §4
# (§6) Similarly, human Burkitt's lymphoma Ramos cells (ATCC CRL-1596) were grown in suspension in Roswell Park Memorial Institute (RPMI) 1640 medium supplemented with 10% fetal bovine serum (FBS), 10 mM HEPES KOH pH 7.4, and 2 mM sodium pyruvate. Mouse P388D1 (ATCC CCL-46) and WR19L (ATCC TIB-52) cells were grown in suspension in Dulbecco's Modified Eagle Medium (DMEM) with 10% fetal bovine serum (FBS), 10 mM HEPES, and 2 mM sodium pyruvate. Mouse WEHI231 (ATCC CRL-1702) and EL4 (ATCC TIB-39) cells were grown in suspension in DMEM with 10% fetal bovine serum (FBS), 10 mM HEPES KOH pH 7.4, 2 mM sodium pyruvate, and 0.05 mM β-mercaptoethanol. All cells were maintained at 37° C. in an atmosphere of 5% CO2 in air. Logarithmically growing cells were routinely sub-cultured twice weekly. Briefly, cells were collected by centrifugation, resuspended in pre-warmed media, and diluted 1:10 into a 75 cm^2 flask.
# as §5
# [7] = tested on: human non-small cell lung cancer cells H460; test: XTT cell proliferation assay, H460; type: cell-based; details: 5 days incubation, read-out: Antiproliferative activity, NSCLC H460
# Method: as §2, §3
# P388D1 (mouse, lymphoma) = test: Cell growth inhibition assay, P388D1; type: cell-based; details: five days of incubation, XTT; read-out: IC50 P388D1 (ms)
# Method: as §4, §6, §5
# [8] = tested on: brain cancer/tumour cells U87-MG; test: XTT cell proliferation assay, U87-MG; type: cell-based, human; details: 5 days incubation, read-out: Antiproliferative activity, Brain U87-MG
# Method: as §2, §3
# [9] = tested on: human pancreatic cells BXPC3; test: XTT cell proliferation assay, BXPC3; type: cell-based; details: 5 days incubation, read-out: Antiproliferative activity, Pancreas BXPC3
# Method: as §2, §3
# leukemia cells HL60 = test: XTT cell proliferation assay, HL60; type: cell-based, human; details: 5 days incubation, read-out: Antiproliferative activity, Leuk. HL60
# Method: as §2, §3
structure (smiles),measurement,setting,value
FC1(F)Oc2ccc(-c3nc4c5cccnc5c5ncccc5c4[nH]3)cc2O1 [Compound 1],"inhibition of tumour growth, as measured by tumour size",[1],able to inhibit tumour growth
same,"inhibition of tumour growth, as measured by tumour size",[2],able to inhibit tumour growth
same,IC50,[3],350 nM
same,IC50,[4],209 nM
same,"inhibition of tumour growth, as measured by tumour size",[5],able to inhibit tumour growth
same,IC50,[6],163 nM
same,IC50,[7],160 nM
same,IC50,"P388D1 (mouse, lymphoma)",370 nM
same,IC50,[8],190 nM
same,IC50,[9],180 nM
same,IC50,leukemia cells HL60,30 nM
